Measured values reported in patent US6653478B2, “Substituted benzimidazol-2-ones as vasopressin receptor antagonists and neuropeptide Y modulators” (Ortho-McNeil Pharmaceutical, Inc., priority 2000, dated 2003).

Columns and labels:
NPY2 receptors = target: T1, NPY2 receptors (Homo sapiens, UniProt P49146); test: Neuropeptide Y receptor binding assay (125I-PYY, KAN-TS cell membranes); conditions: 10 μM compound; for inhibition at 10 µM: read-out: NPY-2@10, % Inh
T1 construct: Cell Membranes from KAN-TS cells having NPY2 receptors; endogenous in cells; host or cells: KAN-TS cells (membranes)
T1 sequence (P49146 1-381): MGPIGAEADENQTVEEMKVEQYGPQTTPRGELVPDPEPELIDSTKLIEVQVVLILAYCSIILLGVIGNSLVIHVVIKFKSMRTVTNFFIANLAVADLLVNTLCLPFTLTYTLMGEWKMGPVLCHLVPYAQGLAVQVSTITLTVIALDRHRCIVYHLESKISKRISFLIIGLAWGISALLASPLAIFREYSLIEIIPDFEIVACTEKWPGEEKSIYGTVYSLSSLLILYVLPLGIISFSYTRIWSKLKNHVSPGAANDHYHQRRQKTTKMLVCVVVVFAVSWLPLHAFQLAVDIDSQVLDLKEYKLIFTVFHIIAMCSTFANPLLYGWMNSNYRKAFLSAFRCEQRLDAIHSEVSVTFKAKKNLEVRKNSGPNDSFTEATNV
Method: Neuropeptide Y Receptor Binding Assay
Load 96-well RIA racks with RIA vials (Sarstedt, cat. #73.1055)
Prepare membranes—use 2×15 cm confluent plates/96-well assay plate
Add 14 mls Homogenization buffer/cell pellet
Homogenize at high speed for 15 seconds
Transfer to 15 ml conical tube and spin 5′ at 4° C. at setting 3 in RT6000 centrifuge
Transfer supernatant to 30 ml Corex tube
Balance and spin 25′ at 15,000 rpm at 4° C.
Resuspend pellet in 10 mls Binding buffer
Homogenize at high speed for 15 sec.
Bring volume up to 50 mls in Binding buffer (25 mls/2×96-well plates)
Keep on ice until use or freeze in aliquots (2 plates/tube) in −70° C.
Prepare ^125I-PYY (for 2×96-well compound plates)
Dilute 50 uCi ^125I-PYY in 1 ml H2O
Add 0.4 ml 10% BSA to 20 ml Binding buffer
Add 150 μl ^125I-PYY, mix well
NSB (1 μM PYY final conc.): 40 μl PYY (100 μM stock)+60 μl 30% DMSO in HEPES=40 μM PYY—add 5 μl/well
Total Binding: Add 5 μl/well of Compound Diluent
Add 5 μl compound (final conc. @10 μM)
Incubate at R.T. for 1 hr.
Spin plates for 10′ at setting 9 in RT6000 centrifuge
Aspirate supernatant from tubes, add 300 μl PBS and aspirate again.
After plates are washed and aspirated, put individual tubes in 12×75 mm polypropylene carrier tubes. Count on gamma counter.

human V1a receptor = human V1a receptor (Homo sapiens, UniProt P37288); test: V1a binding assay (3H-AVP displacement, HEK-293 membranes); parameters: expressed in transfected cells; host or cells: HEK-293 (membranes); conditions: for inhibition at 1 µM: read-out: V1a@1.0, % Inh; for inhibition at 0.1 µM: 0.1 μM compound, read-out: V1a % Inh @0.1
human V1a receptor, sequence (P37288 whole entry): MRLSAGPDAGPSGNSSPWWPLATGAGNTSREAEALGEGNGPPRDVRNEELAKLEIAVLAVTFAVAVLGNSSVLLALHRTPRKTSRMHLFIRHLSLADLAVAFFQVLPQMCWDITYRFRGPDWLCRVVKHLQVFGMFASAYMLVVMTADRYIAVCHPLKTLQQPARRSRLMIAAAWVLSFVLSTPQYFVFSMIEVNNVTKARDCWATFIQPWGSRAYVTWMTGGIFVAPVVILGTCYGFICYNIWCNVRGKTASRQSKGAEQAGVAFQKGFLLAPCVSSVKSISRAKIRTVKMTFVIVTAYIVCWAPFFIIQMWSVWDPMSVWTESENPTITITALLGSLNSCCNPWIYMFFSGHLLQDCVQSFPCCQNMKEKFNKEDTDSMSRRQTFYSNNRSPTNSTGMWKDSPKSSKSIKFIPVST
Method in brief: (§1)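 Membranes from transfected HEK-293 cells incubated 1 h at room temperature with ³H-AVP (10,000 cpm) in 50 mM Tris, 5 mM MgCl2, 0.1% BSA, pH 7.5 plus protease inhibitors. Non-specific binding set with 1.25 μM AVP. Bound tracer collected on PEI-soaked GF/C filters and counted by scintillation.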

human V1b receptor = target: T2, human V1b receptor (Homo sapiens, UniProt P47901); test: V1b binding assay (3H-AVP displacement, HEK-293 membranes); parameters: expressed in transfected cells; host or cells: HEK-293 (membranes); conditions: for inhibition at 10 µM: 10 μM compound, read-out: V1b % Inh @10; for inhibition at 1 µM: read-out: V1b@1.0, % Inh
T2 sequence (P47901 1-424): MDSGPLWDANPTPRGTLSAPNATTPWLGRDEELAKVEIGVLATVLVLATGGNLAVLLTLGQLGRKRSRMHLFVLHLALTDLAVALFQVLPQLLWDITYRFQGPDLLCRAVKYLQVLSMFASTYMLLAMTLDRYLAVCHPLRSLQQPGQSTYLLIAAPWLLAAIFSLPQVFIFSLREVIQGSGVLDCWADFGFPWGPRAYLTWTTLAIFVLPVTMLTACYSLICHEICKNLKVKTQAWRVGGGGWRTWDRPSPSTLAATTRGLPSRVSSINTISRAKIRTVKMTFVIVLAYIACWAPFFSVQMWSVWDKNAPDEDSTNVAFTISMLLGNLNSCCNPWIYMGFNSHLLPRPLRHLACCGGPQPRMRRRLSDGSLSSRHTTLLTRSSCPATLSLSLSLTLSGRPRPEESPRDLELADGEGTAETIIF
Method in brief: as §1

human V2 receptor = human V2 receptor (Homo sapiens, UniProt P30518); test: V2 binding assay (3H-AVP displacement, HEK-293 membranes); parameters: expressed in transfected cells; host or cells: HEK-293 (membranes); conditions: 1.0 μM compound; for inhibition at 1 µM: read-out: V2@1.0, % Inh
human V2 receptor, sequence (P30518 whole entry): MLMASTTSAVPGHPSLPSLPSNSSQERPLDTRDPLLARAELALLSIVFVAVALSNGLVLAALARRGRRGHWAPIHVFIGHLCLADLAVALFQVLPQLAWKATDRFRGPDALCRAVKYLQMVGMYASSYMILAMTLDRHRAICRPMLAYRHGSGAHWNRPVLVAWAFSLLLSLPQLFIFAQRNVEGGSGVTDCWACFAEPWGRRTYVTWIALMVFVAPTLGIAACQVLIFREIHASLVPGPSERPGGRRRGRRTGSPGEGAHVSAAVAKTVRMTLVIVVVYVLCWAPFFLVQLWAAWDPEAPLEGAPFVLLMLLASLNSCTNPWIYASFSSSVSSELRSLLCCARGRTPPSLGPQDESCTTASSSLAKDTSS
Method in brief: as §1

SMILES	inhibition at 10 µM (NPY2 receptors)	IC50 (human V1a receptor)	inhibition at 10 µM (human V1b receptor)	inhibition at 1 µM (human V2 receptor)	inhibition at 1 µM (human V1a receptor; 1.0 μM compound)	also measured
O=c1[nH]c2ccccc2n1C1CCN(C(=S)NC(c2ccccc2)c2ccccc2)CC1 [Compound 1, 1-[(N1-Piperidinocarbothioyldiphenylmethylamino)-4-yl]-1,3-dihydro-benzimidazol-2-one]	52%	590 nM	0%	38%		
O=c1[nH]c2ccccc2n1C1CCN(C(=S)NC2c3ccccc3-c3ccccc32)CC1 [Compound 33]	13%		9%	0%	33%	
O=c1n(CCCN2CCCCC2)c2ccccc2n1C1CCN(C(=S)NCc2cccc3ccccc23)CC1 [Compound 112, 1-[(N1-piperidinocarbothioyl-1-naphthalmethylamino)-4-yl]-3-(3-N-piperidinylpropyl)-1,3-dihydrobenzimidazol-2-one]	55%	139 nM		0%		inhibition at 1 µM (human V1b receptor; 1.0 μM compound): 32%
O=c1n(CCCN2CCCCC2)c2ccccc2n1C1CCN(C(=S)NCc2ccccc2)CC1 [Compound 105, 1-[(N1-piperidinocarbothioylbenzylamino)-4-yl]-3-(3-N-piperidinylpropyl)-1,3-dihydrobenzimidazol-2-one]	12%	188 nM		0%	58%	inhibition at 1 µM (human V1b receptor; 1.0 μM compound): 30%
COC(=O)C(Cc1ccccc1)NC(=S)N1CCC(n2c(=O)n(CCCN3C(=O)c4ccccc4C3=O)c3ccccc32)CC1 (centres unmarked) [Compound 56]	22%	360 nM	19%	3%		
NC(=O)C(Cc1ccccc1)NC(=S)N1CCC(n2c(=O)[nH]c3ccccc32)CC1 (centres unmarked) [Compound 47]	10%		0%	14%	45%	
O=c1[nH]c2ccccc2n1C1CCN(C(=S)NCc2ccc3c(c2)OCO3)CC1 [Compound 16]	15%		15%	0%	40%	
NCCCn1c(=O)n(C2CCN(C(=S)NC(c3ccccc3)c3ccccc3)CC2)c2cc(Cl)c(Cl)cc21 [Compound 67, 5,6-Dichloro-1-[(N1-piperidinocarbothioylbenzhydrylamino)-4-yl]-3-(3-aminopropyl)-1,3-dihydro-benzimidazol-2-one]	2%		45%	0%		inhibition at 0.1 µM (human V1a receptor): 57%
CC(NC(=O)N1CCC(n2c(=O)[nH]c3ccccc32)CC1)c1cccc2ccccc12 (stereo in doubt) [Compound 7]	13%	9200 nM	11%	31%		
C[C@H](NC(=S)N1CCC(n2c(=O)n(CCCN3CCCCC3)c3ccccc32)CC1)c1ccccc1 [Compound 116, 1-[(N1-piperidinocarbonthioyl-R-(−)-alpha-methylbenzylamino)-4-yl]-3-(3-N-piperidinylpropyl)-1,3-dihydrobenzimidazol-2-one]	25%			18%	85%	inhibition at 1 µM (human V1b receptor; 1.0 μM compound): 47%
CC(C)(C)OC(=O)NCCNC(=O)C(Cc1ccccc1)NC(=S)N1CCC(n2c(=O)[nH]c3ccccc32)CC1 (centres unmarked) [Compound 46]	16%		26%	0%		inhibition at 0.1 µM (human V1a receptor): 8%
NC(=O)CCn1c(=O)n(C2CCN(C(=S)NC(c3ccccc3)c3ccccc3)CC2)c2ccccc21 [Compound 69, 1-[(N1-piperidinocarbothioyldiphenylmethylamino)-4-yl]-3-(2-amidoethyl)-1,3-dihydro-benzimidazol-2-one]	40%		27%	0%	22%	
O=c1[nH]c2ccccc2n1C1CCN(C(=S)NCc2ccccc2)CC1 [Compound 11]	26%	3100 nM	0%	3%		
O=c1n(CCCN2CCOCC2)c2ccccc2n1C1CCN(C(=S)NC(c2ccccc2)c2ccccc2)CC1 [Compound 84, 1-[(N1-piperidinocarbothioylbiphenylmethylamino)-4-yl]-3-(3-morpholinopropyl)-1,3-dihydrobenzimidazol-2-one]	73%	22 nM		8%		IC50 (human V1b receptor): 274 nM
O=c1[nH]c2ccccc2n1C1CCN(C(=S)NCc2cccnc2)CC1 [Compound 29]	11%	1900 nM	0%	2%		
O=c1[nH]c2ccccc2n1C1CCN(C(=S)NCCc2cccc(Cl)c2)CC1 [Compound 23]	15%		0%	12%	56%	
CCN(CC)CCn1c(=O)n(C2CCN(C(=S)NC(C)c3ccc(F)cc3)CC2)c2ccccc21 (centres unmarked) [Compound 36, 1-(N1-Piperidinocarbothioyl-(4-fluoro-[…]-methylbenzylamino)-4-yl)-3-(2-diethyaminoethyl)-1,3-dihydrobenzimidazol-2-one]	16%		20%	0%	45%	
O=C(NC(c1ccccc1)c1ccccc1)N1CCC(n2c(=O)n(CCCN3CC=CC3)c3ccccc32)CC1 [Compound 102]	23%	123 nM		6%		inhibition at 1 µM (human V1b receptor; 1.0 μM compound): 41%
CC(Cc1ccc(Cl)cc1)NC(=S)N1CCC(n2c(=O)[nH]c3ccccc32)CC1 (centres unmarked) [Compound 30]	23%	390 nM	0%	9%		
Cc1ccccc1NC(=S)N1CCC(n2c(=O)n(CCCN3CCCCC3)c3ccccc32)CC1 [Compound 109, 1-[(N1-piperidinocarbothioyl-2-methylphenylamino)-4-yl]-3-(3-N-piperidinylpropyl)-1,3-dihydrobenzimidazol-2-one]	58%	56 nM		0%		inhibition at 1 µM (human V1b receptor; 1.0 μM compound): 14%
O=c1n(Cc2ccccc2)c2ccccc2n1C1CCN(C(=S)NCCc2ccc(Cl)cc2)CC1 [Compound 39, 1-(N1-Piperidinocarbothioyl-2-(4-chlorophenyl)ethylamino-4-yl)-3-benzyl-1,3-dihydrobenzimidazol-2-one]	18%		7%	0%	17%	
COc1ccccc1NC(=S)N1CCC(n2c(=O)n(CCCN3CCCC3)c3ccccc32)CC1 [Compound 87, 1-[(N1-Piperidinocarbothioyl-(2-methoxyphenyl)amino)-4-yl]-3-(3-pyrrolidinylpropyl)-1,3-dihydrobenzimidazol-2-one]						NPY-2@10, % Inh (NPY2 receptors): 13%; V1a@1.0, % Inh (human V1a receptor; 1.0 μM compound): 30%; V1b@1.0, % Inh (human V1b receptor; 1.0 μM compound): 23%; V2@1.0, % Inh (human V2 receptor): 3%
